Converted amounts (≈) assume the structure as drawn.
test system: Enterobacter cloacae; experiment: Antibacterial activity against Enterobacter cloacae S3 isolate by agar dilution technique; assay type: functional

SMILES | MIC [µg/mL]
CO/N=C(\C(=O)N[C@@H]1C(=O)N2C(C(=O)O)=C(COC(C)=O)CS[C@H]12)c1csc(N)n1 [CEFOTAXIME] | 0.25 (≈ 0.549 µM)
C[C@@H](O)[C@H]1C(=O)N2C(C(=O)O)=C(SCCNC=N)C[C@H]12 [IMIPENEM ANHYDROUS] | 0.12 (≈ 0.401 µM)
CC(=O)OCC1=C(C(=O)O)N2C(=O)[C@@H](NC(=O)Cc3cccs3)[C@H]2SC1 [CEPHALOTHIN] | > 512
CC1(C)S[C@@H]2[C@H](NC(=O)[C@H](C(=O)O)c3ccsc3)C(=O)N2[C@H]1C(=O)O [TICARCILLIN] | > 512
CO/N=C(\C(=O)N[C@@H]1C(=O)N2C(C(=O)O)=C(COC(N)=O)CS[C@H]12)c1ccco1 [CEFUROXIME] | 256 (≈ 603 µM)
CC1(C)S[C@@H]2[C@H](NC(=O)[C@H](N)c3ccc(O)cc3)C(=O)N2[C@H]1C(=O)O [AMOXICILLIN] | > 512
CO[C@@]1(NC(=O)Cc2cccs2)C(=O)N2C(C(=O)O)=C(COC(N)=O)CS[C@@H]21 [CEFOXITIN] | 256 (≈ 599 µM)
CCN1CCN(C(=O)N[C@@H](C(=O)N[C@@H]2C(=O)N3[C@@H]2SC(C)(C)[C@@H]3C(=O)O)c2ccccc2)C(=O)C1=O [PIPERACILLIN] | 16 (≈ 30.9 µM)
CC(C)(O/N=C(\C(=O)N[C@@H]1C(=O)N2C(C(=O)[O-])=C(C[n+]3ccccc3)CS[C@H]12)c1csc(N)n1)C(=O)O [CEFTAZIDIME] | 0.5 (≈ 0.915 µM)

test system: Escherichia coli; experiment: Antibacterial activity against Escherichia coli DH10B expressing recombinant beta lactamase LAP1; assay type: functional

SMILES | MIC [µg/mL]
CO/N=C(\C(=O)N[C@@H]1C(=O)N2C(C(=O)O)=C(COC(C)=O)CS[C@H]12)c1csc(N)n1 [CEFOTAXIME] | 0.12
CC(=O)OCC1=C(C(=O)O)N2C(=O)[C@@H](NC(=O)Cc3cccs3)[C@H]2SC1 [CEPHALOTHIN] | 16
CC1(C)S[C@@H]2[C@H](NC(=O)[C@H](C(=O)O)c3ccsc3)C(=O)N2[C@H]1C(=O)O [TICARCILLIN] | 512
CO/N=C(\C(=O)N[C@@H]1C(=O)N2C(C(=O)O)=C(COC(N)=O)CS[C@H]12)c1ccco1 [CEFUROXIME] | 8
CC1(C)S[C@@H]2[C@H](NC(=O)[C@H](N)c3ccc(O)cc3)C(=O)N2[C@H]1C(=O)O [AMOXICILLIN] | 512
CO[C@@]1(NC(=O)Cc2cccs2)C(=O)N2C(C(=O)O)=C(COC(N)=O)CS[C@@H]21 [CEFOXITIN] | 4
CO/N=C(\C(=O)N[C@@H]1C(=O)N2C(C(=O)[O-])=C(C[N+]3(C)CCCC3)CS[C@H]12)c1csc(N)n1 | 0.12
CCN1CCN(C(=O)N[C@@H](C(=O)N[C@@H]2C(=O)N3[C@@H]2SC(C)(C)[C@@H]3C(=O)O)c2ccccc2)C(=O)C1=O [PIPERACILLIN] | 4
CC(C)(O/N=C(\C(=O)N[C@@H]1C(=O)N2C(C(=O)[O-])=C(C[n+]3ccccc3)CS[C@H]12)c1csc(N)n1)C(=O)O [CEFTAZIDIME] | 0.12

test system: Escherichia coli; experiment: Antibacterial activity against Escherichia coli DH10B; assay type: functional

SMILES | MIC [µg/mL]
CO/N=C(\C(=O)N[C@@H]1C(=O)N2C(C(=O)O)=C(COC(C)=O)CS[C@H]12)c1csc(N)n1 [CEFOTAXIME] | 0.12 (≈ 0.263 µM)
CC(=O)OCC1=C(C(=O)O)N2C(=O)[C@@H](NC(=O)Cc3cccs3)[C@H]2SC1 [CEPHALOTHIN] | 4 (≈ 10.1 µM)
CC1(C)S[C@@H]2[C@H](NC(=O)[C@H](C(=O)O)c3ccsc3)C(=O)N2[C@H]1C(=O)O [TICARCILLIN] | 4 (≈ 10.4 µM)
CO/N=C(\C(=O)N[C@@H]1C(=O)N2C(C(=O)O)=C(COC(N)=O)CS[C@H]12)c1ccco1 [CEFUROXIME] | 2 (≈ 4.71 µM)
CC1(C)S[C@@H]2[C@H](NC(=O)[C@H](N)c3ccc(O)cc3)C(=O)N2[C@H]1C(=O)O [AMOXICILLIN] | 4 (≈ 10.9 µM)
CO[C@@]1(NC(=O)Cc2cccs2)C(=O)N2C(C(=O)O)=C(COC(N)=O)CS[C@@H]21 [CEFOXITIN] | 4 (≈ 9.36 µM)
CCN1CCN(C(=O)N[C@@H](C(=O)N[C@@H]2C(=O)N3[C@@H]2SC(C)(C)[C@@H]3C(=O)O)c2ccccc2)C(=O)C1=O [PIPERACILLIN] | 1 (≈ 1.93 µM)
CC(C)(O/N=C(\C(=O)N[C@@H]1C(=O)N2C(C(=O)[O-])=C(C[n+]3ccccc3)CS[C@H]12)c1csc(N)n1)C(=O)O [CEFTAZIDIME] | 0.06 (≈ 0.11 µM)

test system: not listed separately; experiment: Inhibition of Enterobacter cloacae S3 isolate beta lactamase LAP1 expressed in Escherichia coli DH10B

IC50 [nM] | SMILES
80 | CC1(C)S[C@@H]2[C@H](NC(=O)Cc3ccccc3)C(=O)N2[C@H]1C(=O)O [PENICILLIN G]

test system: Enterobacter cloacae
Description: Activity of Enterobacter cloacae S3 isolate beta lactamase LAP1 expressed in Escherichia coli DH10B

SMILES | Km [µM]
CC(=O)OCC1=C(C(=O)O)N2C(=O)[C@@H](NC(=O)Cc3cccs3)[C@H]2SC1 [CEPHALOTHIN] | 400
CO/N=C(\C(=O)N[C@@H]1C(=O)N2C(C(=O)O)=C(COC(N)=O)CS[C@H]12)c1ccco1 [CEFUROXIME] | > 2000
CC1(C)S[C@@H]2[C@H](NC(=O)[C@H](N)c3ccc(O)cc3)C(=O)N2[C@H]1C(=O)O [AMOXICILLIN] | 180
CCN1CCN(C(=O)N[C@@H](C(=O)N[C@@H]2C(=O)N3[C@@H]2SC(C)(C)[C@@H]3C(=O)O)c2ccccc2)C(=O)C1=O [PIPERACILLIN] | 50
CC1(C)S[C@@H]2[C@H](NC(=O)Cc3ccccc3)C(=O)N2[C@H]1C(=O)O [PENICILLIN G] | 20

test system: Enterobacter cloacae; remark: another data set of the same source
Description: Ratio of kcat to Km of Enterobacter cloacae S3 isolate beta lactamase LAP1 expressed in Escherichia coli DH10B

SMILES | kcat/Km [M⁻¹ s⁻¹]
CC(=O)OCC1=C(C(=O)O)N2C(=O)[C@@H](NC(=O)Cc3cccs3)[C@H]2SC1 [CEPHALOTHIN] | 90000
CO/N=C(\C(=O)N[C@@H]1C(=O)N2C(C(=O)O)=C(COC(N)=O)CS[C@H]12)c1ccco1 [CEFUROXIME] | > 50000
CC1(C)S[C@@H]2[C@H](NC(=O)[C@H](N)c3ccc(O)cc3)C(=O)N2[C@H]1C(=O)O [AMOXICILLIN] | 3.3e+06
CCN1CCN(C(=O)N[C@@H](C(=O)N[C@@H]2C(=O)N3[C@@H]2SC(C)(C)[C@@H]3C(=O)O)c2ccccc2)C(=O)C1=O [PIPERACILLIN] | 1.5e+06
CC1(C)S[C@@H]2[C@H](NC(=O)Cc3ccccc3)C(=O)N2[C@H]1C(=O)O [PENICILLIN G] | 1e+07
